This note sets out measurements from patent US7524512B2, “Composition and method for the prevention and relief of the symptoms of an incompetent or patulous Eustachian tube” (priority 2007, dated 2009).

The subject of data set [1] is patulous Eustachian tube syndrome. Kind of data set: Selected case studies: nose drops in patients with patulous / semi-patulous Eustachian tube syndrome. The class given is in vivo, human. The procedure: In an exemplary first administration protocol, the composition is administered in the form of nose drops, the patient sniffs them through the ipsilateral nostril on the side of the symptomatic ear affected with the disorder. The number of drops administered can be titrated to the needs of the individual patient. The patient can sniff from two to four drops of the solution, and the drops are sniffed back into the nostril so as to deliver the medication to the Eustachian tube opening in the back of the nose. Administration of the drops may be repeated again in four to six hours. As desired, the daily dose maybe increased to 4 drops per administration.
An exemplary nasal drop administration protocol has been developed for the first exemplary embodiment. To achieve normal closure of the lumen, 2-6 drops of the nasal supplement solution are applied to the stoma or opening of the Eustachian tube. It may take two weeks before changes in symptoms become apparent.
Referring to the illustrations in FIGS. 1 and 2 for reference, after the patient been up for a period of time, symptoms begin as the tubal tissues lose fluid and the lumen increases. When the patient feels the symptom of autophony is about to occur, gently blowing the nose to clear any mucous is accomplished.
With the patient 10 lying with head 12 between 45 to 60 degrees above horizontal. This places the Eustachian tube stoma (opening) lower than the nostril 16. Gravity will allow the drops to flow to the back of the nose. Sniffing will draw the drops further info the nasal passage to the Eustachian tube before the semi-permiable membrane lining of the nasal passage can absorb them. Alternatively while sitting in a chair, the head is tilted back at approximately 45 degrees and then tilted toward the affected ear to place it almost below the nose.
For nasal administration, to instill the drops, put the dropper tip one-quarter inch (¼″) into the lower nostril (affected side), closest to the symptomatic ear.
Instill 2-4 drops depending on individual anatomy. Sniffing briskly to draws the drops back approximately three inches (3″) to the location of the tube opening where they will be absorbed. The patient may feel a brief burning or stinging sensation when the drops are administered properly to stimulate the closure of the stoma of the tube. The patient then remains lying down in the administering position for ten (10) seconds.

The test system of data set [2] is otitis media / middle ear infection. The data set is described as follows: Case studies: treatment of otitis media, otitis media with effusion and middle ear infection. The class given is in vivo, human. The method, then: Modification of the composition and methods of treatment for otitis media (OM) and otitis media with effusion (OME) due to inflammatory disease of the middle ear epithelium, structures and specialized membranous tissues is described below. The inflammatory diseases of the middle ear and biofilm are treated herein treated by the following methods. The composition is preferably delivered through the natural opening at the nasopharyngeal orifice of the eustachian tube leading to the middle ear chamber. If this is not possible, a needle or myringotomy incision in made in the tympanic membrane (ear drum) via the external ear canal for the delivery of the embodiment, with or without a device, into the middle ear to chamber. The chamber is irrigated and the biofilm flushed by the exemplary embodiment of the composition delivered as described above.
In otitis media, the solution is topically applied to the Eustachian Tube mucosa in appropriate dosage forms for administration or delivered to the middle ear chamber by delivery through the stoma of the Eustachian Tube in the form of nasal drops, spray, aerosol, rinse, douche or gel. The delivery system may include the modified Politzer technique or catheter insufflation of the middle ear.
If the middle ear chamber is not easily accessible through its natural eustachian tubal stoma, the chamber can be reached directly by surgically penetrating or making an incision in the tympanic membrane of the lateral wall of the middle ear, as in a myringotomy.
In this way, the contaminated middle ear fluid, micro-organisms and biofilm adhesins seen in OME may be degraded and removed by a paracentesis (needle)or myringotomy (scalpel) incision of the tympanic membrane with aspiration of the fluid, under direct visualization. The middle ear fluids and debris are degraded and flushed out by rinsing with the composition of the exemplary embodiment delivered through the acquired opening into the middle ear chamber, in the form of nasal drops, spray, aerosol, rinse, douche, irrigation or gel. The composition, L-Ascorbic acid, in about 4% to 10% wt/vol in an aqueous solution, is employed through a surgically made incision or acquired defect in the tympanic membrane of the middle ear for the optimal characteristics or effects to reestablish Eustachian luminal patency, restore the rheologic properties of the membranous lining, to breakdown and eliminate the contained microorganisms, biofilm or abiotic toxins adhering to the membranes and coating any implanted device in the middle ear, to normalize surface tension and passive closing pressure, facilitating mucociliary clearance through the restored Eustachian tube orifice into the nasopharynx. The products are then swallowed and arrive in the stomach, where the endogenous enzymes and HCL of the stomach inactivate and digest and any residual microorganisms or proteinaceous products.
If a tympanic membrane rupture has occurred, as a complication or from specific trauma, the method of the delivery of the exemplary embodiment is modified for the maximum therapeutic effect of supporting healing of the damaged tympanic membrane. This is accomplished by the application of solid, porous or absorbable implanted devices or sculptured to the anatomical defect of the tympanic membrane and implanted under direct visualization employing a surgical microscope. A non-porous device or tube may be implanted for the delivery of the novel embodiment. The implanted device serves as a conduit through which the embodiment is administered via the external ear canal on a scheduled program for continuous availability of the composition of the exemplary embodiment to support tissue healing by pre-collagen formation and re-epithelization cardinal to middle ear functions.

The mark [3] stands for this setting: Example A: child, 5% in aqueous saline, topical to nasal mucosa, one month after recovery from upper respiratory infection.
Where [4] appears, read: Example C: person, 5% wt/vol aqueous solution on porous implanted device, daily, after three months.

Each structure is given as a SMILES string.

As for `O=C1O[C@H]([C@@H](O)CO)C(O)=C1O` [L-Ascorbic acid], in data set [1] (Example I: person, three drops, 15% wt/vol in distilled water, nose drops), the adverse side effects entry is listed as “no adverse side effects were noted”. In data set [1] (Example I: person, three drops, 15% wt/vol in distilled water, sniffed into ipsilateral nostril, repeated six hours later), the “patulous Eustachian tube syndrome (autophony)” value is recorded as “completely relieved”. Besides, the “autophony symptom of an Incompetent Eustachian Tube” value in data set [1] (Example II: person, unilateral semi-patulous Eustachian tube syndrome, 20% wt/vol aqueous solution, pH 2.0, 2-4 drops per treatment) was “receded completely”. In data set [1] (Example II: person, 20% wt/vol aqueous solution, pH 2.0, 2-4 drops), the adverse side effects entry was “no adverse side effects”. Moreover, the “carcinogenic effect from daily administration of nose drops” value in data set [1] (Example IV: person after nasopharyngeal carcinoma resection, 15% wt/vol aqueous solution, pH 2.1, daily over several years) was “no carcinogenic effect”. Moreover, the “cytology studies of the right Eustachian tube area” value in data set [1] (Example IV: person, 15% wt/vol aqueous solution, pH 2.1, daily for several years) is “free of cancer”. Besides, in data set [1] (inventor (JD) as subject, two drops, 15% wt/vol. in distilled water, as needed, after one month), the “relief of PET symptoms” value was “complete symptomatic relief”. The middle ear pressure result in data set [2] (Example A: child, bilateral negative middle ear pressure, 5% in aqueous saline solution, nasal spray, over the next month) is listed as “within normal limits”. In addition, in data set [2] (setting [3]), the “Eustachian Tube function” value is “normal” and the “middle ear infection or fluid on examination” value is “no evidence of any middle ear infection or fluid”. Further, in data set [2] (Example B: person, Corynebacterium, 5% wt/vol in physiologic saline, two times a day), the signs of infection result is “no further signs of infection”. In addition, in data set [2] (Example B: person, right middle ear infection (Corynebacterium), 5% wt/vol in physiologic saline, trans canal through the perforation, two times a day, in five days), the middle ear drainage result is listed as “completely eliminated”. Moreover, the “mastoid / middle ear drainage” value in data set [2] (Example C: person, chronic right mastoiditis, total tympanic membrane perforation, 5% wt/vol aqueous solution on porous implanted device, daily, after three months) is “ceased”. In addition, in data set [2] (setting [4]), the infection entry is “free of infection” and the right eardrum perforation result is reported as “healed closed”. In data set [2] (Example III: child, chronic otitis media with effusion, 4% wt/vol in physiologic saline, metered nasal spray after politzerization, after two weeks), the hearing result is reported as “hearing was restored”. In addition, in data set [2] (Example III: child, 4% wt/vol in physiologic saline, metered nasal spray), the adverse side effects result is “no adverse side effects”.
